Laboratory results: the NIST ThermoML archive (doi:10.1016/j.jct.2016.07.001)
± gives the expanded uncertainty stated by the source.

Assays:
[1] = Crystal; DTA
[2] = Molar enthalpy of transition or fusion; conditions: Crystal; DSC

**Q.** Which results are given for `O=S(=O)(c1ccc(O)cc1)c1ccccc1O` [2,4'-dihydroxydiphenyl sulfone]?
**A.** Normal melting temperature [1]: 182.20 ± 1.1 °C; Molar enthalpy of transition or fusion [2]: 10.2 ± 0.263 kcal/mol
